This note sets out measurements from ChEMBL document CHEMBL1817599, “Inhibition of LuxS by S-ribosylhomocysteine analogues containing a [4-aza]ribose ring” (Bioorg Med Chem, 2011).

Test [1] deals with T1, S-ribosylhomocysteine lyase (Bacillus subtilis (strain 168)) (UniProt O34667).
T1 sequence (whole entry): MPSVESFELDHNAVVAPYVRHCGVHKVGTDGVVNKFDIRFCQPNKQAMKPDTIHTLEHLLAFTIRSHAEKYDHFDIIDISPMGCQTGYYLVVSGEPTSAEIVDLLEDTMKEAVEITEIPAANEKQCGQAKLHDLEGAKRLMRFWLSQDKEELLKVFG
Nature of the test: Inhibition of Bacillus subtilis LuxS preincubated for 15 mins by UV-vis spectrophotometric analysis.

Test [2] has as its target T1, S-ribosylhomocysteine lyase (Bacillus subtilis (strain 168)). The test can be described thus: Competitive inhibition of Bacillus subtilis LuxS preincubated for 15 mins by UV-vis spectrophotometric analysis.
The target of test [3] is T2, S-ribosylhomocysteine lyase (Bacillus subtilis (strain 168), UniProt O34667).
T2 sequence (O34667 whole entry): T1 sequence (whole entry)
Nature of the test: Competitive inhibition of Bacillus subtilis LuxS preincubated for 30 mins by UV-vis spectrophotometric analysis.

The target of test [4] is T1, S-ribosylhomocysteine lyase (Bacillus subtilis (strain 168)). Described as above.
For test [5] the target is unchanged. The test can be described thus: Inhibition of Bacillus subtilis LuxS at 20 to 50 uM by UV-vis spectrophotometric analysis. As to conditions: TDE = time-dependent effect.

Active and inactive are the calls of the source. The rule behind the calls is not given here.

Take `CCCSC[C@@H]1CCC(O)N1` (mixture of isomers): the inhibition result in test [1] was “inactive”.
The same measure, in the same setting: next, `CC1=N[C@H](CSCCC(N)C(=O)O)[C@@H](O)[C@H]1O` (mixture of isomers): “inactive”; `N[C@@H](CCSC[C@@H]1[C@@H](O)[C@@H](O)C(=O)N1Cc1ccccc1)C(=O)O`: “inactive”.
On to `N[C@@H](CCSC[C@H]1NC[C@H](O)[C@@H]1O)C(=O)O`, for which, in test [2], the inhibition result was “Dose-dependent effect”.
Turning to `N[C@@H](CCSC[C@@H]1CCC(O)N1)C(=O)O` (mixture of isomers), in test [1], the inhibition entry was “inactive”.
Usually IC50 stands for the midpoint of a concentration-inhibition curve. The Ki is the equilibrium dissociation constant of an inhibitor or competing ligand from its target. High values mean lower affinity, low ones higher affinity. `N[C@@H](CCSC[C@H]1NC(O)[C@H](O)[C@@H]1O)C(=O)O` (mixture of isomers): the IC50 in test [3] stood at 60 µM. Moreover, the inhibition constant Ki in test [4] stood at 3.5 µM. In test [5], the inhibition entry is “tde”.
For the compound `NC(CCSC[C@@H]1CCC(=O)N1)C(=O)O` (mixture of isomers), the inhibition result in test [1] was “inactive”.
